The structures appear in SMILES notation. Converted amounts (≈) assume the structure as drawn.

Our source for the FR50 and LC50 values is ChEMBL document CHEMBL3044814, “Seasonal changes in chemical composition of epicuticular waxes from the leaves of Baccharis linearis” (1999).

One assay relates to Spodoptera littoralis. Description: Antifeedant activity against fifth-instar larvae of Spodoptera littoralis at 10 ug/cm'2 by disk-choice assay. The class given is functional.
In a further assay the test system is Artemia salina. Description: Toxicity against Artemia salina (brine shrimp). The class given is functional.

Usually LC50 stands for the concentration that kills 50% of the test population. As to `CCCC#CC#C/C=C/C(=O)OC` [LACHNOPHYLLUM ESTER], the FR50 in the assay on Spodoptera littoralis was determined as 0.31. In addition, the LC50 with Artemia salina came to 5 µg/mL (≈ 28.4 µM).
Taken in the same sequence, the figures for `CC(=O)OC/C=C(/CC[C@@]1(C)[C@H](C)CC[C@@]2(CO)C(COC(C)=O)=CCC[C@@H]21)COC(C)=O` were 0.99 and greater than 100 µg/mL.
Taken in the same sequence, the figures for `COC(=O)/C=C/c1ccc2c(c1)C=CC(C)(C)O2` [WERNERIACHROMENE] were 0.2 and less than 3 µg/mL.
Taken in the same sequence, the figures for `CC1(C)CC[C@]2(C(=O)O)CC[C@]3(C)C(=CC[C@@H]4[C@@]5(C)CC[C@H](O)C(C)(C)[C@@H]5CC[C@]43C)[C@@H]2C1` [OLEANOLIC_ACID] were 1.34 and 10 µg/mL (≈ 21.9 µM).
With `C=C1CC[C@@H]2[C@H]([C@H]3[C@H]1CC[C@]3(C)O)C2(C)C` [SPATHULENOL], the 50% lethal concentration (LC50) in the assay with Artemia salina is less than 3 µg/mL.
`C=C(COC(C)=O)C1Cc2cc(O)c(C(C)=O)cc2O1` (centres undefined) [ACETYLATED DIHYDROBENZOFURAN] came in with an FR50 with Spodoptera littoralis of 0.75. Moreover, the LC50 with Artemia salina is no more than 10 µg/mL.
`CC1(C)CC[C@]2(CO)CC[C@]3(C)C(=CC[C@@H]4[C@@]5(C)CC[C@H](O)C(C)(C)[C@@H]5CC[C@]43C)[C@@H]2C1` [ERYTHRODIOL]: the FR50 with Spodoptera littoralis is 0.88. Moreover, in the assay on Artemia salina, the LC50 came to 50 µg/mL (≈ 113 µM).
In the assay on Artemia salina, `COc1c(-c2ccc(O)c(O)c2)oc2cc(O)cc(O)c2c1=O` [3-O-METHYLQUERCETIN] displayed a median lethal concentration (LC50) of 10 µg/mL (≈ 31.6 µM).
Turning to `CC(=O)Oc1ccc(/C=C/C(=O)O)cc1CC=C(C)C`, in the assay on Artemia salina, the LC50 is less than 50 µg/mL.
In the case of `COc1c(-c2ccc(O)cc2)oc2cc(O)cc(O)c2c1=O` [ISOKAEMPFERIDE], the LC50 in the assay on Artemia salina is no more than 10 µg/mL.
In the assay on Spodoptera littoralis, `CC1(C)CC[C@]2(C(=O)O)CC[C@]3(C)C(=CC[C@@H]4[C@@]5(C)C[C@@H](O)[C@H](O)C(C)(C)[C@@H]5CC[C@]43C)[C@@H]2C1` [MASLINIC ACID] returned an FR50 of 1.34. Further, the LC50 with Artemia salina is 20.2 µg/mL (≈ 42.7 µM).
For `COc1cc(-c2oc3cc(O)cc(O)c3c(=O)c2OC)ccc1O` [3,3'-O-DIMETHYLQUERCETIN], the LC50 with Artemia salina is no more than 10 µg/mL.
